Reference: ChEMBL document CHEMBL4507319 (2021)

What was measured:
[1] = molecular target: Phosphatidylinositol 4-kinase beta (Homo sapiens) (UniProt Q9UBF8); conditions: Compound concentration 1000.0 nM
[2] = molecular target: Cyclin-dependent kinase 16 (Homo sapiens) (UniProt Q00536); conditions: Compound concentration 1000.0 nM
[3] = molecular target: Vascular endothelial growth factor receptor 2 (Homo sapiens) (UniProt P35968); conditions: Compound concentration 1000.0 nM
[4] = molecular target: 5'-AMP-activated protein kinase catalytic subunit alpha-2 (Homo sapiens, UniProt P54646); conditions: Compound concentration 1000.0 nM
[5] = test system: Mast/stem cell growth factor receptor Kit (Homo sapiens), P10721 [D816H]; conditions: Compound concentration 1000.0 nM
[6] = test system: Receptor-type tyrosine-protein kinase FLT3 (Homo sapiens), P36888 [D835V]; conditions: Compound concentration 1000.0 nM
[7] = test system: Receptor-type tyrosine-protein kinase FLT3 (Homo sapiens), P36888 [D835H]; conditions: Compound concentration 1000.0 nM
[8] = molecular target: Receptor tyrosine-protein kinase erbB-4 (Homo sapiens) (UniProt Q15303); conditions: Compound concentration 1000.0 nM
[9] = molecular target: T1, cGMP-dependent protein kinase 1 (Homo sapiens) (UniProt Q13976); conditions: Compound concentration 1000.0 nM
T1 sequence (whole entry): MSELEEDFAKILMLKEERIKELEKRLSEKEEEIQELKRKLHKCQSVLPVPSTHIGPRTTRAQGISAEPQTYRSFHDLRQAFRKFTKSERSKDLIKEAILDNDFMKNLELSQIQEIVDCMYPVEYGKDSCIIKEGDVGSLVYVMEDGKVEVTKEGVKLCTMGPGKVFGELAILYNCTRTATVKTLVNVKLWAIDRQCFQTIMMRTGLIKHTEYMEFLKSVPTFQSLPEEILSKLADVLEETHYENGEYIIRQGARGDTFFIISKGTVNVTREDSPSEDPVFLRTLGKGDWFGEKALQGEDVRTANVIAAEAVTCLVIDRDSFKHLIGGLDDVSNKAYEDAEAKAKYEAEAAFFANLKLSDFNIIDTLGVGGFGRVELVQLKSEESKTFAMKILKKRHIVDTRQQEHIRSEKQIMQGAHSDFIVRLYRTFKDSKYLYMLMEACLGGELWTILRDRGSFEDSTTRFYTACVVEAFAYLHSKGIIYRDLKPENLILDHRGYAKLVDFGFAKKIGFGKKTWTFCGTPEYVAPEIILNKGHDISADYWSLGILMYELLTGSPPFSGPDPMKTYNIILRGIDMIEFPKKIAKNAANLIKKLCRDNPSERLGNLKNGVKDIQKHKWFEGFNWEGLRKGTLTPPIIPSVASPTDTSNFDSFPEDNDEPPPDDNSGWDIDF

[10] = test system: Tyrosine-protein kinase ABL1 (Homo sapiens), P00519 [F317I]; conditions: Compound concentration 1000.0 nM
[11] = molecular target: T2, Tyrosine-protein kinase ITK/TSK (Homo sapiens) (UniProt Q08881); conditions: Compound concentration 1000.0 nM
T2 sequence (whole entry): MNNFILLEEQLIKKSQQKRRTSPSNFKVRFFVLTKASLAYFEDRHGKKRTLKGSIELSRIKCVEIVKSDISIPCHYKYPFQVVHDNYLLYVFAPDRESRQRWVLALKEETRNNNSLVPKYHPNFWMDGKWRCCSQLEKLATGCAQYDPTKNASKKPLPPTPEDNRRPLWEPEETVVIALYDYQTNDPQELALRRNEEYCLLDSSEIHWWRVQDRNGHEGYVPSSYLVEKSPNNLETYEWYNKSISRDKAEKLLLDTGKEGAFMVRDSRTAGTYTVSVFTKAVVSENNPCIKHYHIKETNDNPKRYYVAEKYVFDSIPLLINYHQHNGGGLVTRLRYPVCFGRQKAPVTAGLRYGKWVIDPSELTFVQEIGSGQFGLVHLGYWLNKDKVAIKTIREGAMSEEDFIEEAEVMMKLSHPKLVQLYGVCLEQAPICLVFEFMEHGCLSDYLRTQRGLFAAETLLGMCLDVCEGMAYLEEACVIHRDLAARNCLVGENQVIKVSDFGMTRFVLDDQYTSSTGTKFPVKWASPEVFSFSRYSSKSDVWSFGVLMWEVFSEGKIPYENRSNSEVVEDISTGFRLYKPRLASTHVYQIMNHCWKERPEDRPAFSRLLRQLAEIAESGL

[12] = test system: Tyrosine-protein kinase ABL1 (Homo sapiens), P00519 [M351T]; conditions: Compound concentration 1000.0 nM
[13] = molecular target: Serine/threonine-protein kinase LATS1 (Homo sapiens) (UniProt O95835); conditions: Compound concentration 1000.0 nM
[14] = molecular target: Macrophage-stimulating protein receptor (Homo sapiens) (UniProt Q04912); conditions: Compound concentration 1000.0 nM
Macrophage-stimulating protein receptor (Homo sapiens), sequence (Q04912 25-304 limits assumed): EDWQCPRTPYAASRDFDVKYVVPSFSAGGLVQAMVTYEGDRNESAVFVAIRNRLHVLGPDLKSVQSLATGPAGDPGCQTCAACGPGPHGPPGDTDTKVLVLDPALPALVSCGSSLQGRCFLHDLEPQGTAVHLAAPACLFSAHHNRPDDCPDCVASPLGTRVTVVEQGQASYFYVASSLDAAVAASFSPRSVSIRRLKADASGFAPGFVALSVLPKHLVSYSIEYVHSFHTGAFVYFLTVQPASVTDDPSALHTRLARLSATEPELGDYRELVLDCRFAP
Macrophage-stimulating protein receptor (Homo sapiens), sequence (Q04912 310-1400 limits assumed): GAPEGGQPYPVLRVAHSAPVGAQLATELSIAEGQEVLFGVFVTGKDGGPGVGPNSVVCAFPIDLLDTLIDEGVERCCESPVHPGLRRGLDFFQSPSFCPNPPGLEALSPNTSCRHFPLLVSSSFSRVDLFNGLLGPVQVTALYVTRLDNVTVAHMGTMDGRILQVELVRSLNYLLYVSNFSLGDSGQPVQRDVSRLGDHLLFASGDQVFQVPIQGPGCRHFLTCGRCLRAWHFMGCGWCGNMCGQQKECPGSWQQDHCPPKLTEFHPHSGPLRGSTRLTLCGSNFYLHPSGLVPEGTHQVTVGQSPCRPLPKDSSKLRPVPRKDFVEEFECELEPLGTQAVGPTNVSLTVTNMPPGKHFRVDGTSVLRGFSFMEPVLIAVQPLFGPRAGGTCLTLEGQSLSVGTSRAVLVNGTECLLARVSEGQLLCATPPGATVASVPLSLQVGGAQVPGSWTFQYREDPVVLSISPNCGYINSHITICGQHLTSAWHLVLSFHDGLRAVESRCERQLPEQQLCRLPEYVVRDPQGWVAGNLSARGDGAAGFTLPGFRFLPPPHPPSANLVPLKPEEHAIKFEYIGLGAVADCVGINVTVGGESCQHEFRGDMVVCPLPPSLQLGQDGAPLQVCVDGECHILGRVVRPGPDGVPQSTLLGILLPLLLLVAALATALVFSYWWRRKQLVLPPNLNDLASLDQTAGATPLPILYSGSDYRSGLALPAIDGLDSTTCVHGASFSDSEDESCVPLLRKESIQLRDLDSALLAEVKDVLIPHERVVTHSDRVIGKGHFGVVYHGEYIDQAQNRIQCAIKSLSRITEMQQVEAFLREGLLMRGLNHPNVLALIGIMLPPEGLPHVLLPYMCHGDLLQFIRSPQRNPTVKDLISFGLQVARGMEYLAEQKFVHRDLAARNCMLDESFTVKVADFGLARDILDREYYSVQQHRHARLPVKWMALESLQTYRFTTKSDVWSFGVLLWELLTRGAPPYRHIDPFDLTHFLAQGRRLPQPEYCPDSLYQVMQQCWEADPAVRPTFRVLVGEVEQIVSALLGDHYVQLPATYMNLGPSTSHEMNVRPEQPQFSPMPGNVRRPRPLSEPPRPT

[15] = molecular target: Dual specificity tyrosine-phosphorylation-regulated kinase 1A (Homo sapiens) (UniProt Q13627); conditions: Compound concentration 1000.0 nM
[16] = molecular target: Serine/threonine-protein kinase OSR1 (Homo sapiens) (UniProt O95747); conditions: Compound concentration 1000.0 nM
[17] = molecular target: Activin receptor type-2B (Homo sapiens) (UniProt Q13705); conditions: Compound concentration 1000.0 nM
[18] = molecular target: LIM domain kinase 1 (Homo sapiens) (UniProt P53667); conditions: Compound concentration 1000.0 nM
[19] = molecular target: Alpha-1B adrenergic receptor (Homo sapiens) (UniProt P35368); conditions: Compound concentration 10.0 uM
Alpha-1B adrenergic receptor (Homo sapiens), sequence (P35368 whole entry): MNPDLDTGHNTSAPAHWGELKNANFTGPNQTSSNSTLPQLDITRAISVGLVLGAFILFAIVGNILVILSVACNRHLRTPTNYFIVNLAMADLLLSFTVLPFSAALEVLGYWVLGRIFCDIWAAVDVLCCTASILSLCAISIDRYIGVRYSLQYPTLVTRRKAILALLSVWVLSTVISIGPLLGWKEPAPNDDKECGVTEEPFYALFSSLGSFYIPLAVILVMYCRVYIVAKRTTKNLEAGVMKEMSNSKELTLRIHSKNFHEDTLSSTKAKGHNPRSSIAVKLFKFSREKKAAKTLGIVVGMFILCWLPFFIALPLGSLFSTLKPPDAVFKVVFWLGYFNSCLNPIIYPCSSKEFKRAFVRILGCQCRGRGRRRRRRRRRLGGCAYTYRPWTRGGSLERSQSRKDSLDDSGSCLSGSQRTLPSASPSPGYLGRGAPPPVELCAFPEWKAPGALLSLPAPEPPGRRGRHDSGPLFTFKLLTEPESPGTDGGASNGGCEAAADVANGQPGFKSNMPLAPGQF

[20] = molecular target: Mitogen-activated protein kinase 14 (Homo sapiens) (UniProt Q16539); conditions: Compound concentration 1000.0 nM
[21] = molecular target: LIM domain kinase 2 (Homo sapiens) (UniProt P53671); conditions: Compound concentration 1000.0 nM
LIM domain kinase 2 (Homo sapiens), sequence (P53671 whole entry, looked up, the tested form may be a part): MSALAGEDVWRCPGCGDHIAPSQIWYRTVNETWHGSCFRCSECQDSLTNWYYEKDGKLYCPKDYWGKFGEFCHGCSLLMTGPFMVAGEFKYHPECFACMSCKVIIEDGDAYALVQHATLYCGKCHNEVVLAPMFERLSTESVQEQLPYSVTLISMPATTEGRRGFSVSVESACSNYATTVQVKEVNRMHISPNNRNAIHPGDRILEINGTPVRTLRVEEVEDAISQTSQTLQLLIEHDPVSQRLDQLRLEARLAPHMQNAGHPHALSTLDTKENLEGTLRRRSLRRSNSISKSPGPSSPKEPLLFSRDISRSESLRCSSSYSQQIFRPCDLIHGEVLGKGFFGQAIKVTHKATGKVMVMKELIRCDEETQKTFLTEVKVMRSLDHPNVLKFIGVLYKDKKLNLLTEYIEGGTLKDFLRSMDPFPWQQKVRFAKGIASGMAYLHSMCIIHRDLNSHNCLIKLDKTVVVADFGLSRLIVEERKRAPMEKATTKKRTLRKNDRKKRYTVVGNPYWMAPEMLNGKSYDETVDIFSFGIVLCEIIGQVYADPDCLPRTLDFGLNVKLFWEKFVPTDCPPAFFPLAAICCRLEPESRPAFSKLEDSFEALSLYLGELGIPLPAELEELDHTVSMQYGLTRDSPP

[22] = molecular target: Activin receptor type-1-like (Homo sapiens) (UniProt P37023); conditions: Compound concentration 1000.0 nM
Rattus norvegicus = organism: Rattus norvegicus; conditions: Compound concentration 10.0 uM
[23] = molecular target: Mitogen-activated protein kinase kinase kinase kinase 5 (Homo sapiens) (UniProt Q9Y4K4); conditions: Compound concentration 1000.0 nM
[24] = molecular target: Platelet-derived growth factor receptor alpha (Homo sapiens) (UniProt P16234); conditions: Compound concentration 1000.0 nM
[25] = molecular target: Serine/threonine-protein kinase PLK2 (Homo sapiens) (UniProt Q9NYY3); conditions: Compound concentration 1000.0 nM
[26] = molecular target: Serine/threonine-protein kinase PknB (Mycobacterium tuberculosis) (UniProt P9WI81); conditions: Compound concentration 1000.0 nM
[27] = molecular target: Transient receptor potential cation channel subfamily M member 6 (Homo sapiens) (UniProt Q9BX84); conditions: Compound concentration 1000.0 nM
Transient receptor potential cation channel subfamily M member 6 (Homo sapiens), sequence (Q9BX84 whole entry): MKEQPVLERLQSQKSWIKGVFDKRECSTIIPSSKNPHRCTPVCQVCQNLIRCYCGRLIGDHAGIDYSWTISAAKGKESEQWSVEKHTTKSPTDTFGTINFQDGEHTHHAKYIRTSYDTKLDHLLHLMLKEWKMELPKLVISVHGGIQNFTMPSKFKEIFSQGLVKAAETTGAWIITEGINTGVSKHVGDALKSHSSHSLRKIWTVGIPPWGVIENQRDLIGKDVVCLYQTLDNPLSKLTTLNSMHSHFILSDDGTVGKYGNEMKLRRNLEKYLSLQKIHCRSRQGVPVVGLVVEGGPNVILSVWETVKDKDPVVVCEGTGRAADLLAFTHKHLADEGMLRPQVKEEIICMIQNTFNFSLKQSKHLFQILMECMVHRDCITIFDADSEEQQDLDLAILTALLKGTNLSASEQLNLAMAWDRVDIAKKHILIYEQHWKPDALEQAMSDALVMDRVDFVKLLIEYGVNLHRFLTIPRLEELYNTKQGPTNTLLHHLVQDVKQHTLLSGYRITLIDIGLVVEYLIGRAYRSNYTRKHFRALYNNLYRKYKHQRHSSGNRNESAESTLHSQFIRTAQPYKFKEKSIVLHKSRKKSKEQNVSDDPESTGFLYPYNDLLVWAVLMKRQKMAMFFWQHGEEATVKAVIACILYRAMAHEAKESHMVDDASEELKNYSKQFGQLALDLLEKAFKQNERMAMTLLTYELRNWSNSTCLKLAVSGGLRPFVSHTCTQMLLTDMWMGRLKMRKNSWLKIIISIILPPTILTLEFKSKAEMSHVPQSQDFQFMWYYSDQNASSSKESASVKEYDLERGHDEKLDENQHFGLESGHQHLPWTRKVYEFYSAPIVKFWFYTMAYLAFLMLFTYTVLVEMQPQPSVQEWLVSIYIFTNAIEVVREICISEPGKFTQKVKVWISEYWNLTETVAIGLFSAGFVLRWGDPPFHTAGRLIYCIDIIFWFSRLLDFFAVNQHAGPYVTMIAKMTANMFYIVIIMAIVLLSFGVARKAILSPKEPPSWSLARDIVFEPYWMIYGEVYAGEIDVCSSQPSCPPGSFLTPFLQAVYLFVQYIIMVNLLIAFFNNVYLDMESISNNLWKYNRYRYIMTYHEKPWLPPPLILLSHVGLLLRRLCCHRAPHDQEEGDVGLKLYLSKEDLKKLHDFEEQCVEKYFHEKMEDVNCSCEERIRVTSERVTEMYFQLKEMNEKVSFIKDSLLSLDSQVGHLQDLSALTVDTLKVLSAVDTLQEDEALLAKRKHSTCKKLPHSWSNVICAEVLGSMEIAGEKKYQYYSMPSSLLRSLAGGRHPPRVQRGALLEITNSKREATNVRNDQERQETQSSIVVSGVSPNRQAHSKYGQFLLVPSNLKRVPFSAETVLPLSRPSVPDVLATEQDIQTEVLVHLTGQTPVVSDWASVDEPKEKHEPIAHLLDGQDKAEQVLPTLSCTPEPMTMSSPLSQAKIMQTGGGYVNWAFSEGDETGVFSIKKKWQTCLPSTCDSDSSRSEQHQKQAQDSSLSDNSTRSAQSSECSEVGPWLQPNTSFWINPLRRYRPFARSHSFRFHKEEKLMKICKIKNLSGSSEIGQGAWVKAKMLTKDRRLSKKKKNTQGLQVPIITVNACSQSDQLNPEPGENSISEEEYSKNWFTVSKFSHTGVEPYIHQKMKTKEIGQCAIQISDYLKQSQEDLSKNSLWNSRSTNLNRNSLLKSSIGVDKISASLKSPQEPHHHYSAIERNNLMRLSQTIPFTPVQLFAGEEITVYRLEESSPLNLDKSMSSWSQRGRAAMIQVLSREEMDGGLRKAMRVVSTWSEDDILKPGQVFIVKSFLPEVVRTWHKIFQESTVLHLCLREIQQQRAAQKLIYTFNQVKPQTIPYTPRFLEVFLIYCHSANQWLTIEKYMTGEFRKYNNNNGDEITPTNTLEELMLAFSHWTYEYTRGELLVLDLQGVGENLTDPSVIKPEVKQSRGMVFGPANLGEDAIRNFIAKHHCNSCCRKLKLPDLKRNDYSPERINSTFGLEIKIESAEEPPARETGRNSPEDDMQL

Cyclin-dependent kinase 16 (Homo sapiens), sequence (Q00536 whole entry): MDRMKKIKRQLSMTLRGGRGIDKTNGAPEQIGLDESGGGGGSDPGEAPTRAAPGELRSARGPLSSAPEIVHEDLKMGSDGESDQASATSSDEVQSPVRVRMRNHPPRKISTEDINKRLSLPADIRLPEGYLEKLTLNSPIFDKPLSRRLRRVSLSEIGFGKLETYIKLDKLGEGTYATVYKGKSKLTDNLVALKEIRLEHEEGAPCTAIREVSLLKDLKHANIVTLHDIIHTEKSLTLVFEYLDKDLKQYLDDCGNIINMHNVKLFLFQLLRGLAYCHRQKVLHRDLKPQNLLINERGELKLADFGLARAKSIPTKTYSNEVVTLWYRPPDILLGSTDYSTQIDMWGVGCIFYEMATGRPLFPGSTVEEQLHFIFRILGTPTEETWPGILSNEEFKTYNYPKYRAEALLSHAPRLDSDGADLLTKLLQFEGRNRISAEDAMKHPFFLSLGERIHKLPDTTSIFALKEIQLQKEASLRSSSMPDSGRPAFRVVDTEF

Row | Structure (SMILES) | residual activity [1] | residual activity [2] | residual activity [3] | residual activity [4] | residual activity [5] | residual activity [6] | residual activity [7] | residual activity [8] | residual activity [9] | residual activity [10] | residual activity [11] | residual activity [12] | residual activity [13] | residual activity [14] | residual activity [15] | residual activity [16] | residual activity [17] | residual activity [18] | inhibition [19] | residual activity [20] | also measured
1 | CCc1ccccc1C(=O)Nc1n[nH]c2c(C)c(F)c(C3C(C#N)=C(C)N(C)C(C)=C3C#N)cc12 [BAY-3827] | 100% | 100% | 88% | 0% | 100% | 3.2% | 16% | 84% | 100% | 100% | 86% | 99% | 100% | 100% | 100% | 100% | 99% | 100% | -9.38% | 100% | residual activity [21]: 99%; residual activity [22]: 75%; inhibition (Rattus norvegicus): 85.6%; residual activity [23]: 100%; residual activity [24]: 100%; residual activity [25]: 97%; residual activity [26]: 85%; residual activity [27]: 100%
2 | CC1=C(C#N)C(c2ccc3c(c2)c(NC(=O)c2ccccc2C)nn3C)C(C#N)=C(C)N1 [BAY-974] | 30% | 93% | 80% | 99% | 64% | 90% | 99% | 65% | 100% | 100% | 97% | 94% | 85% | 95% | 97% | 83% | 100% | 94% | -4.61% | 88% | residual activity [21]: 99%; residual activity [22]: 97%; inhibition (Rattus norvegicus): 96.3%; residual activity [23]: 100%; residual activity [24]: 86%; residual activity [25]: 74%; residual activity [26]: 97%; residual activity [27]: 91%
